Experimental data as given in patent US6610689B2, “HIV protease inhibitors based on amino acid derivatives” (priority 2001, dated 2003).
Like-named read-outs stand apart in the source and are kept apart here.

Molecular target: T1, HIV protease (Human immunodeficiency virus type 1 group M subtype B, UniProt P04585)
T1 construct: A third viral enzyme known as protease then cleaves the polyproteins
Assay: Enzymatic Assay for Determining the Inhibition Constant (Ki) of Synthetic Compounds Targeting the HIV Protease (fluorometric FRET assay)
Format: biochemical
Method in brief: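 Fluorometric FRET assay following protease cleavage of an EDANS/DABCYL-labelled substrate. Initial velocities without (Vo) and with inhibitor (Vi) measured; Ki derived from the Henderson equation using inhibitor and substrate concentrations and Km.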

| Compound | Ki [nM] | other results |
| --- | --- | --- |
| Cc1ccc(S(=O)(=O)N(CC(C)C)[C@@H](CCCCNC(=O)[C@H](Cc2ccccc2)NS(=O)(=O)c2ccc3ccccc3c2)C(=O)O)cc1 [Example 19, Nα-Isobutyl-Nα-(4-methylbenzenesulfonyl)-Nε-[N′α-(2-naphthylsulfonyl)-L-phenylalanyl]-L-lysine] | 11 | – |
| Cc1ccc(S(=O)(=O)N[C@H](C(=O)NCCCC[C@@H](C(=O)O)N(CC(C)C)S(=O)(=O)c2ccc(C)cc2)c2ccccc2)cc1 [Example 27, Nα-Isobutyl-Nα-(4-methylbenzenesulfonyl)-Nε-[N′α-(4-methylbenzenesulfonyl)-L-phenylglycyl]-L-lysine] | 11 | – |
| Cc1ccc(S(=O)(=O)N[C@@H](Cc2ccc([N+](=O)[O-])cc2)C(=O)NCCCC[C@@H](C(=O)O)N(CC(C)C)S(=O)(=O)c2ccc(C)cc2)cc1 [Example 26, Nα-Isobutyl-Nα-(4-methylbenzenesulfonyl)-Nε-[N′α-(4-methylbenzenesulfonyl)-L-4-nitrophenylalanyl]-L-lysine] | – | Ki (Anti-protease activity of Ne-amino acid substituted L-lysine derivatives and analogs of formula I, read-out: Ki): 2.6 nM |
| Cc1ccc(S(=O)(=O)N(CC(C)C)[C@@H](CCCCNC(=O)[C@H](Cc2ccccc2)NS(=O)(=O)c2ccc(Cl)cc2)C(=O)O)cc1 [Example 9, Nα-Isobutyl-Nα-(4-methylbenzenesulfonyl)-Nε-[N′α-(4-chlorobenzenesulfonyl)-L-phenylalanyl]-L-lysine] | 6.8 | – |
| Cc1ccc(S(=O)(=O)N[C@@H](Cc2ccccc2)C(=S)NCCCC[C@@H](C(=O)O)N(CC(C)C)S(=O)(=O)c2ccc(C)cc2)cc1 [Example 72, Nα-Isobutyl-Nα-(4-methylbenzenesulfonyl)-Nε-[N′α-(4-methylbenzenesulfonyl)-L-thiophenylalanyl]-L-lysine] | 33 | – |
| CC(C)CN([C@@H](CCCCNC(=O)[C@H](Cc1c[nH]c2ccccc12)NS(=O)(=O)c1ccc(N)cc1)C(=O)O)S(=O)(=O)c1ccc(N)cc1 [Example 5, Nα-Isobutyl-Nα-(4-aminobenzenesulfonyl)-Nε-[N′α-(4-aminobenzenesuifonyl)-L-tryptophanyl]-L-lysine] | 0.459 | – |
| Cc1ccc(S(=O)(=O)N(CC(C)C)[C@@H](CCCCNC(=S)[C@H](Cc2ccccc2)NC(=S)c2ccccc2)C(=O)O)cc1 [Example 77, Nα-Isobutyl-Nα-(4-methylbenzenesulfonyl)-Nε-(N′α-thiobenzoyl-L-thiophenylalanyl)-L-lysine] | 212 | – |
| COc1cccc(CNCC(=O)NCCCC[C@@H](C(=O)O)N(CC(C)C)S(=O)(=O)c2ccc(C)cc2)c1OC [Example 107, Nα-Isobutyl-Nα-(4-methylbenzenesulfonyl)-Nε-[N′α-(2,3-dimethoxybenzyl)glycyl]-L-lysine] | 52 | – |
| Cc1ccc(S(=O)(=O)N(CC(C)C)[C@H](CO)CCCCNC(=O)[C@H](Cc2cccnc2)NC(=O)OC(C)(C)C)cc1 [Example 135, (2S,2′S) 2-N-Isobutyl-2-N-(4-methylbenzenesulfonyl)-6-N-(N′α-tert-butoxycarbonyl-S-3-pyridylalanyl)-2,6-diaminohexanol] | 144 | – |
| Cc1ccc(S(=O)(=O)N(CC(C)C)[C@@H](CCCCNC(=O)CNCCN2CCOCC2)C(=O)O)cc1 [Example 111, Nα-Isobutyl-Nα-(4-methylbenzenesulfonyl)-Nε-[N′α-(4-niorpholinyl-N-ethyl)glycyl]-L-lysine] | > 300 | – |
| Cc1ccc(S(=O)(=O)N(CC(C)C)[C@H](CO)CCCCNC(=O)[C@H](Cc2ccncc2)NC(=O)OC(C)(C)C)cc1 [Example 136, (2S,2′S) 2-N-Isobutyl-2-N-(4-methylbenzenesulfonyl)-6-N-(N′α-tert-butoxycarbonyl-S-4-pyridylalanyl)-2,6-diaminohexanol] | – | Ki (Table 1, compounds of formula I, read-out: Ki (anti-protease activity)): 110 nM |
| CNC(=O)N[C@@H](Cc1ccccc1)C(=O)NCCCC[C@@H](C(=O)O)N(CC(C)C)S(=O)(=O)c1ccc(C)cc1 [Example 198, Nα-Isobutyl-Nα-(4-methylbenzenesulfonyl)-Nε-(N′α-methylaminocarbonyl-L-phenylalanyl)-L-lysine] | 1.1 | – |
| CC(=O)N[C@@H](Cc1ccccc1)C(=O)NCCCC[C@@H](CO)N(CC(C)C)S(=O)(=O)c1ccc(C)cc1 [Example 118, (2S,2′S) 2-N-Isobutyl-2-N-(4-methylbenzenesulfonyl)-6-N-(N′α-acetyl-S-phenylalanyl)-2,6-diaminohexanol] | 13 | – |
| Cc1ccc(S(=O)(=O)N(CC(C)C)[C@H](CO)CCCCNC(=O)[C@H](Cc2ccc(C(C)(C)C)cc2)NC(=O)OC(C)(C)C)cc1 [Example 142, (2S,2′S) 2-N-Isobutyl-2-N-(4-methylbenzenesulfonyl)-6-N-(N′α-tert-butoxycarbonyl-S-4-tert-butylphenylalanyl)-2,6-diaminohexanol] | 93 | – |
| CC(C)CN([C@@H](CCCCNC(=O)[C@H](Cc1ccccc1)NS(=O)(=O)c1cccs1)C(=O)O)S(=O)(=O)c1ccc([N+](=O)[O-])cc1 [Example 29, Nα-Isobutyl-Nα-(4-nitrobenzenesulfonyl)-Nε-[N′α-(2-thiophenesulfonyl)-L-phenylalanyl]-L-lysine] | 11 | – |
| CSCC[C@H](NC(=O)OC(C)(C)C)C(=O)NCCCC[C@@H](C(=O)O)N(CC(C)C)S(=O)(=O)c1ccc(C)cc1 [Example 82, Nα-Isobutyl-Nα-(4-methylbenzenesulfonyl)-Nε-(N′α-tert-butoxycarbonyl-L-methionyl)-L-lysine] | 65 | – |
| COc1ccc(S(=O)(=O)N(CC2CCCC2)[C@H](CO)CCCCNC(=O)[C@H](Cc2c[nH]c3ccccc23)NC(C)=O)cc1 [Example 173, (2S,2′S) 2-N-Cyclopentylmethyl-2-N-(4-methoxybenzenesulfonyl)-6-N-(N′α-acetyl-S-tryptophanyl)-2,6-diaminohexanol] | 11 | – |
| Cc1ccc(S(=O)(=O)N(CC(C)C)[C@@H](CCCCNC(=O)[C@H](Cc2c[nH]c3ccccc23)NC(=O)C(C)(C)C)C(=O)O)cc1 [Example 100, Nα-Isobutyl-Nα-(4-methylbenzenesulfonyl)-Nε-(N′α-pivaloyl-L-tryptophanyl)-L-lysine] | 0.388 | – |
| COc1ccc(CC(=O)N[C@@H](Cc2ccccc2)C(=O)NCCCC[C@@H](C(=O)O)N(CC(C)C)S(=O)(=O)c2ccc(C)cc2)cc1 [Example 132, Nα-Isobutyl-Nα-(4-methylbenzenesulfonyl)-Nε-[N′α-(4-methoxyphenylacetyl)-L-phenylalanyl]-L-lysine] | 0.257 | – |
| Cc1ccc(S(=O)(=O)N(CC(C)C)[C@@H](CCCCNC(=O)[C@H](Cc2ccccc2)NC(=O)NCCO)C(=O)O)cc1 [Example 199, Nα-Isobutyl-Nα-(4-methylbenzenesulfonyl)-Nε-(N′α-ethanolaminocarbonyl-L-phenylalanyl)-L-lysine] | 2.2 | – |
| Cc1ccc(S(=O)(=O)N(CC(C)C)[C@H](CO)CCCCNC(=O)[C@H](Cc2c[nH]c3ccccc23)NC(=O)c2ccccc2)cc1 [Example 191, (2S,2′S) 2-N-Isobutyl-2-N-(4-methylbenzenesulfonyl)-6-N-(N′α-benzoyl-S-tryptophanyl)-2,6-diaminohexanol] | 3.8 | – |
| COc1ccc(CC(=O)N[C@@H](Cc2c[nH]c3ccccc23)C(=O)NCCCC[C@@H](CO)N(CC(C)C)S(=O)(=O)c2ccc(C)cc2)cc1 [Example 165, (2S,2′S) 2-N-Isobutyl-2-N-(4-methylbenzenesulfonyl)-6-N-[N′α-(4-methoxyphenylacetyl)-S-tryptophanyl]-2,6-diaminohexanol] | 1.1 | – |
